Measurements from patent publication US20110245316A1, “PREVENTION OR DELAY OF ONSET OF ORAL MUCOSITIS” (SCICLONE PHARMACEUTICALS, INC., priority 2010, published 2011).

Test system: cytokines and gene expression in CRT-treated HNC patients
Assay: Cytokine and gene microarray analyses of patient samples
Type: in vivo, human
Method: SCV-07 efficacy, dosing and scheduling parameters were assessed in hamster models of acute, fractionated and concomitant chemoradiation (CRT). […] A multicenter, prospective, blinded, randomized trial evaluated SCV-07's ability to alter OM in CRT-treated HNC patients (n=57). Cytokine and gene microarray analyses were performed for samples obtained before and on the last radiation day.

[1] = persons who clinically responded to SCV-07

N[C@H](CCC(=O)N[C@@H](Cc1c[nH]c2ccccc12)C(=O)O)C(=O)O [SCV-07, γ-D-glutamyl-L-tryptophan]
ICAM (SCV-07-treated patients): Increases
IL-1alpha (SCV-07-treated patients): Decreases
IL-5 (SCV-07-treated patients): Decreases
IL-12 (SCV-07-treated patients): Increases
IL-15 (SCV-07-treated patients): Decreases
MIF (SCV-07-treated patients): Increases
MIP-1beta (SCV-07-treated patients): Increases
MIP-3 alpha (SCV-07-treated patients): Decreases
Pro-inflammatory cytokine levels (SCV-07-treated patients): reduced
TNF-alpha (SCV-07-treated patients): Decreases
VCAM (SCV-07-treated patients): Increases
macrophage-associated cytokines (SCV-07-treated patients): Elevated
Gene expression (microarray) (SCV-07 vs placebo patients): Gene expression differences were noted
IL-21 [1]: increases
MIF [1]: increases
VEGF [1]: decrease
